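48-hour exposure; five concentrations; linearly interpolated endpoints. GI50: concentration for 50% inhibition of growth.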 Calls of active or inactive are those of the source. Rule as the data show it: active = GI50 up to about 1.1 µM and inactive = higher.
What was measured:
Experiment in all cases: NCI-60 cell line screen, 48 h
786-0 = system: 786-0
A498 = system: A498
A549 = system: A549
ACHN = system: ACHN
CAKI-1 = system: CAKI-1
CCRF-CEM = system: CCRF-CEM
DLD-1 = system: DLD-1
DMS-114 = system: DMS-114
DMS-273 = system: DMS-273
EKVX = system: EKVX
HCC 2998 = system: HCC 2998
HCT-116 = system: HCT-116
HCT-15 = system: HCT-15
HL-60 = system: HL-60
HOP-18 = system: HOP-18
HOP-62 = system: HOP-62
HOP-92 = system: HOP-92
HT-29 = system: HT-29
IGROV-1 = system: IGROV-1
K562 = system: K562
KM-20L2 = system: KM-20L2
KM12 = system: KM12
LOX IMVI = system: LOX IMVI
LXFL 529 = system: LXFL 529
M14 = system: M14
M19-MEL = system: M19-MEL
MOLT-4 = system: MOLT-4
Malme-3M = system: Malme-3M
NCI-H226 = system: NCI-H226
NCI-H23 = system: NCI-H23
NCI-H460 = system: NCI-H460
OVCAR-3 = system: OVCAR-3
OVCAR-4 = system: OVCAR-4
OVCAR-5 = system: OVCAR-5
OVCAR-8 = system: OVCAR-8
RPMI-8226 = system: RPMI-8226
RXF 393 = system: RXF 393
RXF 631 = system: RXF 631
SF-268 = system: SF-268
SF-295 = system: SF-295
SF-539 = system: SF-539
SK-MEL-28 = system: SK-MEL-28
SK-MEL-2 = system: SK-MEL-2
SK-MEL-5 = system: SK-MEL-5
SN12C = system: SN12C
SNB-19 = system: SNB-19
SNB-75 = system: SNB-75
SNB-78 = system: SNB-78
SR = system: SR
SW-620 = system: SW-620
TK-10 = system: TK-10
UACC-257 = system: UACC-257
UACC-62 = system: UACC-62
UO-31 = system: UO-31
XF498 = system: XF498
COLO 205 = system: COLO 205
NCI-H522 = system: NCI-H522
U-251 = system: U-251
SK-OV-3 = system: SK-OV-3

Measured: GI50

C/C(CCn1[nH]c(=O)ccc1=O)=N\O
inactive: 786-0 > 100 µM | A498 > 100 µM | A549 > 100 µM | ACHN > 100 µM | CAKI-1 > 100 µM | CCRF-CEM > 100 µM | DLD-1 > 100 µM | DMS-114 > 100 µM | DMS-273 > 100 µM | EKVX > 100 µM | HCC 2998 > 100 µM | HCT-116 > 100 µM | HL-60 > 100 µM | HOP-18 > 100 µM | HOP-62 > 100 µM | HOP-92 > 100 µM | HT-29 > 100 µM | IGROV-1 > 100 µM | K562 > 100 µM | KM-20L2 > 100 µM | KM12 > 100 µM | LOX IMVI > 100 µM | LXFL 529 > 100 µM | M14 > 100 µM | M19-MEL > 100 µM | MOLT-4 > 100 µM | Malme-3M > 100 µM | NCI-H226 > 100 µM | NCI-H23 > 100 µM | NCI-H460 > 100 µM | OVCAR-3 > 100 µM | OVCAR-4 > 100 µM | OVCAR-5 > 100 µM | OVCAR-8 > 100 µM | RPMI-8226 > 100 µM | RXF 393 > 100 µM | RXF 631 > 100 µM | SF-268 > 100 µM | SF-295 > 100 µM | SF-539 > 100 µM | SK-MEL-28 > 100 µM | SK-MEL-2 > 100 µM | SK-MEL-5 > 100 µM | SN12C > 100 µM | SNB-19 > 100 µM | SNB-75 > 100 µM | SNB-78 > 100 µM | SR > 100 µM | SW-620 > 100 µM | TK-10 > 100 µM | UACC-257 > 100 µM | UACC-62 > 100 µM | UO-31 > 100 µM | XF498 > 100 µM
> 100 µM: HCT-15

CCOC(=O)CC1=Nc2ccccc2SC1
active: SF-268 0.031 µM
> 100 µM: HCT-15
inactive: 786-0 > 100 µM | A498 > 100 µM | A549 > 100 µM | ACHN > 100 µM | CAKI-1 > 100 µM | COLO 205 > 100 µM | DLD-1 > 100 µM | DMS-114 > 100 µM | DMS-273 > 100 µM | EKVX > 100 µM | HCC 2998 > 100 µM | HCT-116 > 100 µM | HOP-18 > 100 µM | HOP-62 > 100 µM | HOP-92 > 100 µM | HT-29 > 100 µM | IGROV-1 > 100 µM | KM-20L2 > 100 µM | KM12 > 100 µM | LOX IMVI > 100 µM | LXFL 529 > 100 µM | M14 > 100 µM | M19-MEL > 100 µM | MOLT-4 > 100 µM | Malme-3M > 100 µM | NCI-H226 > 100 µM | NCI-H23 > 100 µM | NCI-H460 > 100 µM | NCI-H522 > 100 µM | OVCAR-3 > 100 µM | OVCAR-4 > 100 µM | OVCAR-5 > 100 µM | OVCAR-8 > 100 µM | RXF 393 > 100 µM | RXF 631 > 100 µM | SF-295 > 100 µM | SF-539 > 100 µM | SK-MEL-28 1.29 µM | SK-MEL-2 > 100 µM | SK-MEL-5 > 100 µM | SN12C > 100 µM | SNB-19 > 100 µM | SNB-75 > 100 µM | SNB-78 > 100 µM | SW-620 > 100 µM | TK-10 > 100 µM | U-251 > 100 µM | UACC-257 > 100 µM | UACC-62 > 100 µM | UO-31 > 100 µM | XF498 > 100 µM

CC(=O)c1cc2c3c(c1)c1cc4c(cc1c(=O)n3CC2)OCO4
inactive: 786-0 13.4 µM | A549 40.1 µM | ACHN 16.9 µM | CAKI-1 20.8 µM | CCRF-CEM 11.9 µM | COLO 205 29.6 µM | DLD-1 15.2 µM | DMS-114 37.7 µM | DMS-273 7 µM | EKVX 46.2 µM | HCC 2998 > 100 µM | HCT-116 4.71 µM | HL-60 39.3 µM | HOP-18 13.5 µM | HOP-62 44.5 µM | HOP-92 54.8 µM | HT-29 19.4 µM | IGROV-1 28.8 µM | K562 18.1 µM | KM-20L2 23.7 µM | KM12 8.63 µM | LOX IMVI 13.9 µM | LXFL 529 10.4 µM | M14 59.7 µM | M19-MEL 34 µM | MOLT-4 2.92 µM | Malme-3M 23.3 µM | NCI-H226 > 100 µM | NCI-H23 75.5 µM | NCI-H460 11.2 µM | NCI-H522 7.21 µM | OVCAR-3 33.8 µM | OVCAR-4 25.8 µM | OVCAR-5 78.7 µM | OVCAR-8 8.3 µM | RPMI-8226 17.6 µM | RXF 393 32.4 µM | RXF 631 21.5 µM | SF-295 26.9 µM | SF-539 32.6 µM | SK-MEL-28 65.3 µM | SK-MEL-2 > 100 µM | SK-MEL-5 31 µM | SK-OV-3 > 100 µM | SN12C 16.8 µM | SNB-19 28.5 µM | SNB-75 34.4 µM | SNB-78 > 100 µM | SR 4.32 µM | SW-620 7.78 µM | TK-10 21.2 µM | U-251 27 µM | UACC-257 26.7 µM | UACC-62 17.3 µM | UO-31 8.11 µM | XF498 > 100 µM
19.8 µM: HCT-15

From ChEMBL document CHEMBL1201862, “PubChem BioAssay data set” (2004)
